Laboratory results: patent publication US7812014B2, “Bicyclic 6-alkylidene-penems as β-lactamase inhibitors” (priority 2002, dated 2010)
pIC50: −log10 of the molar value. Counter-ions that a name gives are not always drawn. Like-named read-outs stand apart in the source and are kept apart here.

Columns and labels:
[1] = tested on: E. Coli GC2847 (TEM-1); assay: Antimicrobial susceptibility testing, microbroth dilution, piperacillin + inhibitor; assay type: cell-based; conditions: piperacillin combined with constant 4 ug/ml of inhibitor; 35° C. for 18 hours
Procedure: (§1) Antimicrobial susceptibility testing. The in vitro activities of the antibiotics were determined by the microbroth dilution method as recommended by the National Committee for Clinical Laboratory Standards (NCCLS). (NCCLS. 2000. Methods for Dilution Antimicrobial Susceptibility Tests for Bacteria That Grow Aerobically; Approved Standards: M7-A5, vol. 19. National Committe for Clinical Laboratory Standards, Villanova, Pa.). Mueller-Hinton II broth (MHBII) (BBL Cockeysville, Md.), was used for the testing procedure. Microtiter plates containing 50 μl per well of two-fold serial dilutions of piperacillin combined with a constant amount (4 ug/ml) of a B-lactamase inhibitor were inoculated with 50 μl of inoculum to yield the appropriate density (10^5 CFU/ml) in 100·I final volume. The plates were incubated for 18-22 hours at 35° C. in ambient air. […] The MIC data obtained by the above said procedure are enlisted in Table 2.

[2] = tested on: E. Coli GC22033; assay: as above; assay type: cell-based; conditions: piperacillin combined with constant 4 ug/ml of inhibitor; 35° C. for 18 hours
Procedure: as §1

[3] = tested on: E. Coli GC2920 (IRT-2); assay: as above; assay type: cell-based; conditions: piperacillin combined with constant 4 ug/ml of inhibitor; 35° C. for 18 hours
Procedure: as §1

[4] = tested on: E. Coli GC2894 (Ampc); assay: as above; assay type: cell-based; conditions: piperacillin combined with constant 4 ug/ml of inhibitor; 35° C. for 18 hours
Procedure: as §1

[5] = tested on: E. Coli GC2844; assay: as above; assay type: cell-based; conditions: piperacillin combined with constant 4 ug/ml of inhibitor; 35° C. for 18 hours
Procedure: as §1

[6] = tested on: Clinical isolates that have been adapted to cause infection in mice; assay: In vivo antibacterial protection, 7 day survival of infected mice; design: species or system mice strain CD-1
Text: In Vivo Antibacterial Protection
Female mice strain CD-1, approximately 18-22 grams, were received from Charles River Laboratories and quarantined 7 days prior to use. In addition, mice may be rendered neutropenic using cytoxan.
Clinical isolates that have been adapted to cause infection in mice, are used in the experiment, including infections with strains of E. coli, K. pneumoniae, M. morganii, E. cloacae, S. marcescens, C. freundii, staphylococci, streptococci, P. aeruginosa and N. gonorrhoeae.
Mice are challenged by injecting 0.5 ml intraperitoneally or 0.05 ml intranasally of a predetermined bacterial inoculum suspended in broth, saline or hog gastric mucin (supplemented with dried bovine hemoglobin for N. gonorrhoeae). […] Antibacterial doses (dose concentration prepared by two fold serial dilutions of the antibiotic) are dissolved or suspended in 0.2% aqueous agar or methocel, phosphate buffered saline or an adjuvant are administered orally, subcutaneously or intravenously in the following manner: • a) Orally or subcutaneously: Dose volume of 0.5 ml administered ½ hr after infection. A second dose may be administered 3 hr. after infection for treatment of infections with more virulent organisms. • b) Intravenously: Dose volume of 0.2 ml, administered ½ hr. after infection. For the treatment of infections with more virulent organisms, more doses, up to 48 hr may be administered. (Intravenous dosing will not exceed 3 doses/24 hr period.) • c) Oral pretreatment: Under special circumstances, the pH of the stomach needs to be adjusted in order to increase the gastric stability of the antibiotic. For this purpose, 0.5 ml of phosphate buffered saline (pH7.8, 0.06M) (or specific approved adjuvant) is administered orally ½ hr after infection, followed 5 minutes later by 0.5 ml of antibiotic (also orally) contained in phosphate buffered saline (pH7.8, 0.06M). Animal Species
A detailed explanation as to the number of animals needed for the determination of in vivo efficacy follows: • A) Novel antibiotics are tested at 5 different dose levels with 5 mice per dose level at each of three routes of administration (oral, subcutaneous and intravenous). […] This would require 25 mice/route with 3 routes/antibiotic or 75 mice per novel compound tested. One to two novel antibiotics will be tested per experiment (75-150 mice) • B) The effectiveness of the new compound must be compared to that of a standard, or antibiotic of known effectiveness. Known or previously tested antibiotics are tested at 5 dose levels with 5 mice per dose level by a single route of administration, for a total of 25 mice/antibiotic. Usually 3-6 antibiotics will be tested per experiment. (75-150 mice). • C) Untreated controls—In each of the above tests, untreated animals are infected with 3 different concentrations of bacterial inoculum with 10 mice per concentration (30 mice total in each and every test). These untreated controls are used to determine and maintain the infection level between 10-100 LD50s as required for test to test comparison and validity. Determination of Protective Effects of Antibacterial Agents:
The protective effects of the antibacterial agent(s) are measured by the survival of the infected untreated as compared to the treated animals. […] A census of survivors is taken twice daily and at that time dead as well as moribund animals are removed. […] The test is performed three times on separate days to provide a statistically valid number of animals and to minimize variation in test results on a day to day and test to test basis.

[7] = tested on: S. Marcescens GC1781 Sme-1 + Ampc; assay: Antimicrobial susceptibility testing, microbroth dilution, piperacillin + inhibitor; assay type: cell-based; conditions: piperacillin combined with constant 4 ug/ml of inhibitor; 35° C. for 18 hours
Procedure: (§2) Antimicrobial susceptibility testing. The in vitro activities of the antibiotics were determined by the microbroth dilution method as recommended by the National Committee for Clinical Laboratory Standards (NCCLS). (NCCLS. 2000. Methods for Dilution Antimicrobial Susceptibility Tests for Bacteria That Grow Aerobically; Approved Standards: M7-A5, vol. 19. National Committe for Clinical Laboratory Standards, Villanova, Pa.). Mueller-Hinton II broth (MHBII) (BBL Cockeysville, Md.), was used for the testing procedure. Microtiter plates containing 50 μl per well of two-fold serial dilutions of piperacillin combined with a constant amount (4 ug/ml) of a B-lactamase inhibitor were inoculated with 50 μl of inoculum to yield the appropriate density (10^5 CFU/ml) in 100·I final volume. The plates were incubated for 18-22 hours at 35° C. in ambient air.

[8] = tested on: E. Cloacae GC1477 (Ampc); assay: as above; assay type: cell-based; conditions: piperacillin combined with constant 4 ug/ml of inhibitor; 35° C. for 18 hours
Procedure: as §2

[9] = tested on: P. aeruginos GC1764 (Ampc); assay: as above; assay type: cell-based; conditions: piperacillin combined with constant 4 ug/ml of inhibitor; 35° C. for 18 hours
Procedure: as §2

[10] = target: class A β-lactamase TEM-1 (Escherichia coli, UniProt P62593); assay: IC50 determination, β-lactamase inhibition (nitrocefin, spectrophotometric); assay type: biochemical, E. coli; conditions: enzyme 4.3 nM; 10 minutes preincubation at 25° C.; nitrocefin 50 μg/ml; pH 7.0
class A β-lactamase TEM-1, sequence (P62593 24-286 limits assumed): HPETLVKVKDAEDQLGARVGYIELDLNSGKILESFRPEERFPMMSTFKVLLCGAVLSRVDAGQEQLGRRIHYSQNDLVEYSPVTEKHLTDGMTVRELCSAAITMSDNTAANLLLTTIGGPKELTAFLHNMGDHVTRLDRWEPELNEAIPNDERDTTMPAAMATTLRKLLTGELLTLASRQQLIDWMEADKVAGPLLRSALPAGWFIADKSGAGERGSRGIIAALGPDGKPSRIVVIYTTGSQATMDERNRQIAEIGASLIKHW
Procedure: (§3) IC50 Determination for the Penem Inhibitor
(§4) β-Lactamase inhibitory activity of the penem inhibitors was determined spectrophotometrically as described by Bush et al., [Bush, K., Macalintal, C., Rasmussen, B. A., Lee, V. and Yang, Y. Antimicrobial Agents and Chemotherapy 1993, 37, 851]. Homogeneously purified class A β-lactamases TEM-1 from E. coli and Imi-1 from Enterobacter cloacae, class B enzyme CcrA from Bacteroides fragilis and class C enzyme AmpC from Enterobacter cloaca were employed in the assay. The enzyme concentrations for TEM-1, Imi-1, CcrA and AmpC were 4.3, 7.1, 1.2 and 2.1 nM, respectively. A wide range of inhibitor concentrations were prepared in 50 mM PO4, pH 7.0 to include the possible IC50 values. The substrate used to initiate the enzyme reaction was nitrocefin at 50 μg/ml in the same buffer as the inhibitor. Initially the enzyme and inhibitor (20 μl each) were preincubated for 10 minutes at 25° C. prior to the addition of 160 μl volume of nitrocefin. Initial rates of hydrolysis were monitored for 5 minutes at 495 nm using a Molecular Devices Spectra Max 250 with kinetic protocol of SoftMax Program. Readings from the Spectra Max 250 were exported and transferred to Microsoft Excel. The percent of inhibition of each inhibitor concentration was calculated based on the control enzyme activity. The inhibitor concentration that caused a 50% reduction in the enzymatic activity (IC50) was determined graphically.

[11] = target: class C enzyme AmpC (Enterobacter cloacae, UniProt P05364); assay: biochemical; design: species or system Enterobacter cloaca; conditions: for IC50: read-out: IC50 (nM) Class C AmpC
class C enzyme AmpC, sequence (P05364 21-381): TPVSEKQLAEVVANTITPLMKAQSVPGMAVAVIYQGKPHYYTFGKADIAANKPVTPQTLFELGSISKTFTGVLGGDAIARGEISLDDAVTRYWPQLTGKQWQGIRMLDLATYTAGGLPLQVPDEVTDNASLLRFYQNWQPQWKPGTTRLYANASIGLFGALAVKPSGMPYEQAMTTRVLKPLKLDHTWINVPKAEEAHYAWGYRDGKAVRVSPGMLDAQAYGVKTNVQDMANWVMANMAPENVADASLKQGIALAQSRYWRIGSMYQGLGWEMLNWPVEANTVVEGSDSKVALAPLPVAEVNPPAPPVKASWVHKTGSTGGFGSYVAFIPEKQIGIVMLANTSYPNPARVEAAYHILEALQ
Procedure: as §3, §4

[12] = target: class B enzyme CcrA (Bacteroides fragilis, UniProt P25910); assay: IC50 determination, β-lactamase inhibition (nitrocefin, spectrophotometric); assay type: biochemical; conditions: enzyme 1.2 nM; 10 minutes preincubation at 25° C.; nitrocefin 50 μg/ml; pH 7.0; read-out: IC50 (nM) Class B Ccr
class B enzyme CcrA, sequence (P25910 19-249): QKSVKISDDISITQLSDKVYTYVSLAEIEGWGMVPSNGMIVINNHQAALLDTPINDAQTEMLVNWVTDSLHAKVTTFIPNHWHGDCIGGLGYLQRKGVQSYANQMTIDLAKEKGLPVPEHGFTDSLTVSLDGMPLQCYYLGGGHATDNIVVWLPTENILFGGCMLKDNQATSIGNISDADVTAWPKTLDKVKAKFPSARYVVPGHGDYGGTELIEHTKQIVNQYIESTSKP
Procedure: as §3, §4

[13] = target: class A β-lactamase Imi-1 (Enterobacter cloacae, UniProt Q46991); assay: as above; assay type: biochemical; conditions: for IC50: enzyme 7.1 nM, 10 minutes preincubation at 25° C., nitrocefin 50 μg/ml, pH 7.0, read-out: IC50 (nM) Class A Imi
class A β-lactamase Imi-1, sequence (Q46991 28-292): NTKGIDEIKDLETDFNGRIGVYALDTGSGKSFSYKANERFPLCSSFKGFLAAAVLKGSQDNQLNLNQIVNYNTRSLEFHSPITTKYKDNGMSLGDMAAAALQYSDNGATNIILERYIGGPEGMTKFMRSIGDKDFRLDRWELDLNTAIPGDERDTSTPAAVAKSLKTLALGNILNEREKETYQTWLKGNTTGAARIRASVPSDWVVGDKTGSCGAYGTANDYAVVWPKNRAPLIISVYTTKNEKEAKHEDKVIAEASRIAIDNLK
Procedure: as §3, §4

[14] = tested on: S. aureus GC2216; assay: Antimicrobial susceptibility testing, microbroth dilution, piperacillin + inhibitor; assay type: cell-based; conditions: piperacillin combined with constant 4 ug/ml of inhibitor; 35° C. for 18 hours
Procedure: as §1

[15] = Ratio of Piperacillin vs. Inhibitor not given
[16] = enzyme 2.1 nM, 10 minutes preincubation at 25° C., nitrocefin 50 μg/ml, pH 7.0
[17] = Mus musculus, 168 h, Ratio of Piperacillin vs. Inhibitor 4:1, read-out: ED50
[18] = Mus musculus, 168 h, Ratio of Piperacillin vs. Inhibitor not given, read-out: ED50

SMILES: CN1Cc2nc(/C=C3/C(=O)N4C(C(=O)O)=CS[C@H]34)cn2CC1=O (as salt: sodium) [Example 10, (5R),(6Z)-6-(7-Methyl-6-oxo-5,6,7,8-tetrahydro-imidazo[1,2-a]pyrazin-2-ylmethylene)-7-oxo-4-thia-1-aza-bicyclo[3.2.0]hept-2-ene-2-carboxylic acid sodium salt]
- melting point: 115 to 117 °C (dec.)

SMILES: CC(=O)N1CCc2sc(/C=C3/C(=O)N4C(C(=O)[O-])=CS[C@H]34)cc2C1.[Na+] (single isomer, unassigned) [Example 34]
- Minimal Inhibitory Concentration E. Coli GC2847 (TEM-1) [1]: 32 µg/mL
- Minimal Inhibitory Concentration E. Coli GC22033 [2]: 2 µg/mL
- Minimal Inhibitory Concentration E. Coli GC2920 (IRT-2) [3]: 4 µg/mL
- Minimal Inhibitory Concentration E. Coli GC2894 (Ampc) [4]: 32 µg/mL
- Minimal Inhibitory Concentration E. Coli GC2844 [5]: 4 µg/mL
- ED50 [6, 15]: 32 mg/kg
- Minimal Inhibitory Concentration S. Marcescens GC1781 Sme-1 + Ampc [7]: 2 µg/mL
- Minimal Inhibitory Concentration E. Cloacae GC1477 (Ampc) [8]: >64 µg/mL
- Minimal Inhibitory Concentration P. aeruginos GC1764 (Ampc) [9]: 32 µg/mL

SMILES: O=C(O)C1=CS[C@@H]2/C(=C\c3cc4c(s3)CCN(Cc3ccccc3)C4)C(=O)N12 [Example 1, (5R,6Z)-6-[(5-benzyl-4,5,6,7-tetrahydrothieno[3,2-c]pyridin-2-yl)methylene]-7oxo-4-thia-1-azabicyclo[3.2.0]hept-2-ene-2-carboxylic acid]
- IC50 [10]: 4.2 nM
- IC50 [11, 16]: 12 nM
- melting point: 198 °C
- IC50 [12]: 260 nM
- IC50 [13]: 2.1 nM
- ED50 ([6]; Mus musculus, 168 h, Ratio of Piperacillin vs. Inhibitor 2:1, read-out: ED50): 32 to 64 mg/kg

SMILES: COc1ccc(CN2CCc3sc(/C=C4/C(=O)N5C(C(=O)O)=CS[C@H]45)cc3C2)cc1 [Example 4]
- Minimal Inhibitory Concentration E. Coli GC2847 (TEM-1) [1]: 8 µg/mL
- Minimal Inhibitory Concentration E. Coli GC22033 [2]: 2 µg/mL
- Minimal Inhibitory Concentration E. Coli GC2920 (IRT-2) [3]: 2 µg/mL
- Minimal Inhibitory Concentration S. aureus GC2216 [14]: 0.50 µg/mL
- Minimal Inhibitory Concentration E. Coli GC2894 (Ampc) [4]: 2 µg/mL
- Minimal Inhibitory Concentration E. Coli GC2844 [5]: 2 µg/mL
- ED50 ([6]; Ratio of Piperacillin vs. Inhibitor 4:1): 32 to 64 mg/kg
- Minimal Inhibitory Concentration S. Marcescens GC1781 Sme-1 + Ampc [7]: 2 µg/mL
- Minimal Inhibitory Concentration E. Cloacae GC1477 (Ampc) [8]: 64 µg/mL
- Minimal Inhibitory Concentration P. aeruginos GC1764 (Ampc) [9]: 32 µg/mL

SMILES: O=C(O)C1=CS[C@@H]2/C(=C\c3cc4c(s3)CCN(C(=O)c3cccnc3)C4)C(=O)N12 [Example 22]
- IC50 [10]: 6.1 nM
- IC50 [11, 16]: 11 nM
- melting point: 195 °C
- IC50 [12]: 110 nM
- IC50 [13]: 42 nM
- ED50 [6, 17]: 128 mg/kg

SMILES: O=C(O)C1=CS[C@@H]2/C(=C\c3cc4c(s3)CCN(C(=O)Cc3ccccc3)C4)C(=O)N12 [Example 23]
- IC50 [10]: 4.6 nM
- IC50 [11, 16]: 7.8 nM
- melting point: 166 to 169 °C
- IC50 [12]: 140 nM
- IC50 [13]: 40 nM
- ED50 [6, 17]: 128 mg/kg

SMILES: O=C([O-])C1=CS[C@@H]2/C(=C\c3cc4n(n3)CSC4)C(=O)N12.[Na+] [Example 31, (5R)(6Z)-7-Oxo-6-(4H-5-thia-1,6a-diazapentalen-2-ylmethylene)-4-thia-1-azabicyclo[3.2.0]hept-2-ene-2-carboxylic acid, sodium salt]
- IC50 [10]: 1.4 nM
- IC50 ([11]; pH 7): 1.5 nM
- IC50 [12]: 110 nM
- IC50 [13]: 56 nM
- ED50 [6, 15]: 20 mg/kg

SMILES: O=C([O-])C1=CS[C@@H]2/C(=C\c3cc4n(n3)CCO4)C(=O)N12.[Na+] [Example 33, (5R)(6Z)-6-(2,3-Dihydropyrazolo[5,1-b]oxazol-6-ylmethylene)-7-oxo-4-thia-1-azabicyclo[3.2.0]hept-2-ene-2-carboxylic acid, sodium salt]
- IC50 [10]: 1.1 nM
- pIC50 [11]: 9.07
- IC50 [12]: 41 nM
- IC50 [13]: 59 nM
- ED50 [6, 18]: > 64 mg/kg

SMILES: O=C(O)C1=CS[C@@H]2/C(=C\c3cc4n(n3)CCOC4)C(=O)N12 [Example 35, (5R,6Z)-6-(6,7-dihydro-4H-pyrazolo[5,1-c][1,4]oxazin-2-ylmethylene)-7-oxo-4-thia-1-azabicyclo[3.2.0]hept-2-ene-2-carboxylic acid]
- IC50 [10]: 4.2 nM
- IC50 [11, 16]: 6.1 nM
- IC50 [12]: 30 nM
- pIC50 [13]: 6.64
- ED50 [6, 18]: 19 mg/kg
